{"source": "patent US20210315840A1", "about": "“SOLID ORAL DOSAGE FORMS OF KETAMINE DERIVATIVES” (priority 2017, published 2021)", "key": {"5-HT1A": {"biological_target": "T1, 5-HT1A (Homo sapiens, UniProt P08908)", "T1 sequence (P08908 1-422)": "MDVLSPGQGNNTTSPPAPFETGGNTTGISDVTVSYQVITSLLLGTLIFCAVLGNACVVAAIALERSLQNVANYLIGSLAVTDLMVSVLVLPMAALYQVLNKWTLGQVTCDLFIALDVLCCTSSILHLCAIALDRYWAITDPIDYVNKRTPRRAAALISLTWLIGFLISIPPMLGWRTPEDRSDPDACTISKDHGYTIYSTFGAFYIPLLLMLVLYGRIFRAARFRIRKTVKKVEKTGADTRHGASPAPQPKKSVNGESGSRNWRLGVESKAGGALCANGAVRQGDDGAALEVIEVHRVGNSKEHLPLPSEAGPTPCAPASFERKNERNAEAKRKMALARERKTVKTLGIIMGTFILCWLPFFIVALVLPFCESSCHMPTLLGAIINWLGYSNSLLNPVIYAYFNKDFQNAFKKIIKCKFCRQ", "assay": "Binding assay 5-HT1A", "excerpt": "(§1) 2R,6R-hydroxynorketamine was investigated for binding to monoamine oxidases A and B, monoamine transporters, as well as a variety of 5HT receptors."}, "5-HT1B": {"biological_target": "5-HT1B (Homo sapiens, UniProt P28222)", "sequence (P28222 whole entry, species assumed)": "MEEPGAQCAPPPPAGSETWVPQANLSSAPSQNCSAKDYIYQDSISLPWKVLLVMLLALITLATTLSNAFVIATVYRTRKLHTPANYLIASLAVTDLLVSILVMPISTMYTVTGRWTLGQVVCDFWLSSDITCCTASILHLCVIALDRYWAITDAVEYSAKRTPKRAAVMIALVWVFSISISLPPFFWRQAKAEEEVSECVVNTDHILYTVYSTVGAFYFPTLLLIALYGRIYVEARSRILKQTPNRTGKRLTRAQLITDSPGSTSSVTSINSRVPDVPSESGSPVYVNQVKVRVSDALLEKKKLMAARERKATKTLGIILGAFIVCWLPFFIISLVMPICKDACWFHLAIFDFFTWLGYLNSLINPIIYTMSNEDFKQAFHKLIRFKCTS", "assay": "Binding assay 5-HT1B", "excerpt": "as §1"}, "5-HT2A": {"biological_target": "5-HT2A (Homo sapiens, UniProt P28223)", "sequence (P28223 whole entry)": "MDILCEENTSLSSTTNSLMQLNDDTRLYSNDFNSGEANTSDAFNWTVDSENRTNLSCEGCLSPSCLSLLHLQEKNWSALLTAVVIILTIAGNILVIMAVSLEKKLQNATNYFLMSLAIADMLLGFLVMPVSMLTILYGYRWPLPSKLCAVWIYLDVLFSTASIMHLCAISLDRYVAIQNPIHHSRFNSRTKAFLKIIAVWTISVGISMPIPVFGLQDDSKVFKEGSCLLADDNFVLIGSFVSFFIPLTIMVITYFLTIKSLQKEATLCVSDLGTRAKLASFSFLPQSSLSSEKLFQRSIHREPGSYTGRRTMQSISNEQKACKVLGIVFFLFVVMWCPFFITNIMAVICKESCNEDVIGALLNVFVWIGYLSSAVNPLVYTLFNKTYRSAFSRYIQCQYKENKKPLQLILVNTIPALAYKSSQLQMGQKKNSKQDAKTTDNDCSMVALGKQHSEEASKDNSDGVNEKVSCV", "assay": "Binding assay 5-HT2A", "excerpt": "as §1"}, "5-HT2C": {"biological_target": "T2, 5-HT2C (Homo sapiens, UniProt P28335)", "T2 sequence (P28335 33-458)": "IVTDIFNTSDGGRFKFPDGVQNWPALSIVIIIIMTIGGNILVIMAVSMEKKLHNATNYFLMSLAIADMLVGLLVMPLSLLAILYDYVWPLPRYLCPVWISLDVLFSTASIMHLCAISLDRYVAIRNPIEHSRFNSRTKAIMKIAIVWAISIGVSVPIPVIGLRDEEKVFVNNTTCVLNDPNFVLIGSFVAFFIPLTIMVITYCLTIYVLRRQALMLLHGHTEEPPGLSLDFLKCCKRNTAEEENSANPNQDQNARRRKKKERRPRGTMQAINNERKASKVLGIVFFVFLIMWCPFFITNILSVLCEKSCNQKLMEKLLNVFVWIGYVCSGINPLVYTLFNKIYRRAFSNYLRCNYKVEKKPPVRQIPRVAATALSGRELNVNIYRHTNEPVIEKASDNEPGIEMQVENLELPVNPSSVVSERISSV", "assay": "Binding assay 5-HT2C", "excerpt": "as §1"}, "dopamine transporter": {"biological_target": "dopamine transporter (Homo sapiens, UniProt Q01959)", "sequence (Q01959 whole entry)": "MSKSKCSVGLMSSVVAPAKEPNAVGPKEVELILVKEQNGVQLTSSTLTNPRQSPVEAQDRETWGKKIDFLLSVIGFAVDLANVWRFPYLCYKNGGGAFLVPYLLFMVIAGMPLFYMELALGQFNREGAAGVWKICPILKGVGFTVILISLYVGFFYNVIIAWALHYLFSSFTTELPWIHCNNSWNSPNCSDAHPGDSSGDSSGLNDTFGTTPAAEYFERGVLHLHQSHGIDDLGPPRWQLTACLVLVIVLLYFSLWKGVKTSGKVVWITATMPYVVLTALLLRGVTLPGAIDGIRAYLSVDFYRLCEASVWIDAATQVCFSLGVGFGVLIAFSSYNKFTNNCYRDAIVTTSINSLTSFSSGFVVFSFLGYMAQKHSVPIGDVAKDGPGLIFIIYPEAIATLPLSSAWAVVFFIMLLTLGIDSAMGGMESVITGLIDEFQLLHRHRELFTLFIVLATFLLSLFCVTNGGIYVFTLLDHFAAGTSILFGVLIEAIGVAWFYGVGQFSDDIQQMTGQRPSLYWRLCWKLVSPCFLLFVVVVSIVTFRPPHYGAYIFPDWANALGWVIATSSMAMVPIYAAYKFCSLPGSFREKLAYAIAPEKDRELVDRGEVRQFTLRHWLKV", "assay": "Binding assay dopamine transporter", "excerpt": "as §1"}, "5-HT1, Non-Selective": {"tested_on": "5-HT1, Non-Selective", "assay": "Binding assay 5-HT1, Non-Selective", "excerpt": "as §1\nAn absence of interaction between 2R,6R-hydroxynorketamine and 5HT1 receptors is also of note. Rare postmarketing reports have described patients with weakness, hyperreflexia, and incoordination following the use of an SSRI and the 5HT1 agonist, sumatriptan. The possibility of such interactions should also be considered if other 5HT1 agonists are to be used in combination with SSRIs."}, "MAO-B": {"biological_target": "MAO-B (Homo sapiens, UniProt P27338)", "sequence (P27338 whole entry, species assumed)": "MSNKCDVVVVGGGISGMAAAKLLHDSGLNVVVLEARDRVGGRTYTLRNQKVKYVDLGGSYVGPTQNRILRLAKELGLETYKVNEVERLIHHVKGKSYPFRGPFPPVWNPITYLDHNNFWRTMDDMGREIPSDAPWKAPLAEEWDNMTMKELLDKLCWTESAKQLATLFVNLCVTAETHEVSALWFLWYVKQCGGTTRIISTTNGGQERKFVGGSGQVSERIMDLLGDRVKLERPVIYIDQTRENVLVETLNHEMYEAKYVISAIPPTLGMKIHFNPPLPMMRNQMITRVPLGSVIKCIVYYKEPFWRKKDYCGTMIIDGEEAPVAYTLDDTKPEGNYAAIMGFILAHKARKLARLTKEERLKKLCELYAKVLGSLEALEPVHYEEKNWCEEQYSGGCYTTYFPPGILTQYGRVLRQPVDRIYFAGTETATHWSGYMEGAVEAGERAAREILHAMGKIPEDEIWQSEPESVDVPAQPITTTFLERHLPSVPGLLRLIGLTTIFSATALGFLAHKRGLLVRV", "assay": "Binding assay MAO-B", "excerpt": "as §1"}, "CYP2C19": {"biological_target": "CYP2C19 (Homo sapiens, UniProt P33261)", "sequence (P33261 whole entry)": "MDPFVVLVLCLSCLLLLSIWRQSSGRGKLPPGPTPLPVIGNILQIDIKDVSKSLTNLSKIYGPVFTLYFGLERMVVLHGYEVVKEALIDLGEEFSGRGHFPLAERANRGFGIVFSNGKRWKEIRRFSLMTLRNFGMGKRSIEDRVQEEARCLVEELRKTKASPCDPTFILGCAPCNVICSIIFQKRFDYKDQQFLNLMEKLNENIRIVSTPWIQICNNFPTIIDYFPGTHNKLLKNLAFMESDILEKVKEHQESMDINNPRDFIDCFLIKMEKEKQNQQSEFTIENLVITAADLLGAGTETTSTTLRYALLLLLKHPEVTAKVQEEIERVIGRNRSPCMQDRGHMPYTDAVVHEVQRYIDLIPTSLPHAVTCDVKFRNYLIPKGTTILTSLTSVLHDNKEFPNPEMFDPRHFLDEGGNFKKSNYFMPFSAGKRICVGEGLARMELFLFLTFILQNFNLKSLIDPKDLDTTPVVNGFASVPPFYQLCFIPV", "assay": "CYP inhibition assay CYP2C19", "assay_type": "in vitro ADME", "excerpt": "(§2) Cytochrome P450s (CYPs) are a family of enzymes that play a primary role in the metabolism of a wide variety of drugs. 2R,6R-hydroxynorketamine was investigated for its potential to inhibit the action of 7 key CYP enzymes using an inhibition assay measuring reduction in the formation of metabolites compared to control."}, "CYP2C9": {"biological_target": "CYP2C9 (Homo sapiens, UniProt P11712)", "sequence (P11712 whole entry)": "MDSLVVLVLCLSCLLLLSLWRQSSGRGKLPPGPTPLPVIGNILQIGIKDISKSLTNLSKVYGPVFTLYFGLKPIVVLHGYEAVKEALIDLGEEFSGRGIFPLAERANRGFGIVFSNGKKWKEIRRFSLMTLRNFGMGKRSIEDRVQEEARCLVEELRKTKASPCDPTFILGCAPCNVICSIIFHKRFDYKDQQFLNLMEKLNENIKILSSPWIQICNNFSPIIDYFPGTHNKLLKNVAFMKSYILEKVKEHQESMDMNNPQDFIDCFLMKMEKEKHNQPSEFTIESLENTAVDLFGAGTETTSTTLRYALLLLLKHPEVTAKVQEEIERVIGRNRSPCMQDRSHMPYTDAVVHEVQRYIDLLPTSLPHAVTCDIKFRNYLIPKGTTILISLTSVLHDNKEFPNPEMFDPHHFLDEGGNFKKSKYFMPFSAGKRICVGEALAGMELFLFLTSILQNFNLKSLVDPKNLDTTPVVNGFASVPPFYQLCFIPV", "assay": "CYP inhibition assay CYP2C9", "assay_type": "in vitro ADME", "excerpt": "as §2"}, "CYP3A4": {"biological_target": "CYP3A4 (Homo sapiens, UniProt P08684)", "sequence (P08684 whole entry)": "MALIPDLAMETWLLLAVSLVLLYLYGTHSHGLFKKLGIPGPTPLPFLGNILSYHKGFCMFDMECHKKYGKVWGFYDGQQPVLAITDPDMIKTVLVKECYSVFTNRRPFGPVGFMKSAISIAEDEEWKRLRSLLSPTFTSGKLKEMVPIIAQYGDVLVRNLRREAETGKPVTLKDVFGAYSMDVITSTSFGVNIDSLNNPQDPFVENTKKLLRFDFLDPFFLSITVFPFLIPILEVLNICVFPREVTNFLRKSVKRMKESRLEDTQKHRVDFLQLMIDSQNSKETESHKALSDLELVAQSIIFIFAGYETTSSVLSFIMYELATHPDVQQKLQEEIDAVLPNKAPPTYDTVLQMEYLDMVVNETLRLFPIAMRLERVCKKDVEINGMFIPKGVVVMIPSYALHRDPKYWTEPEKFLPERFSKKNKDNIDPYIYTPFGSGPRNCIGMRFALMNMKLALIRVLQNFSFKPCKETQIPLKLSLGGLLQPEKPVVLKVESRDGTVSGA", "assay": "CYP inhibition assay CYP3A4, substrate midazolam", "assay_type": "in vitro ADME", "conditions": "for % Inhibition: Substrate = midazolam", "excerpt": "as §2"}, "Metabolite profiling": {"assay": "Metabolite profiling", "assay_type": "in vitro ADME"}, "[1]": {"tested_on": "cryopreserved hepatocytes", "assay": "Hepatocyte stability assay, rat", "conditions": "3 μM", "procedure": "(§3) Test compound (3 μM) was incubated with cryopreserved hepatocytes in suspension. Samples are removed at 6 time points over the course of 120 minutes and analysed by LC-MS/MS."}, "[2]": {"tested_on": "cryopreserved hepatocytes", "assay": "Hepatocyte stability assay, dog", "conditions": "3 μM", "procedure": "as §3"}, "[3]": {"tested_on": "cryopreserved hepatocytes", "assay": "Hepatocyte stability assay, human", "procedure": "as §3"}}, "note": "Like-named read-outs stand apart in the source and are kept apart here."}
{"compound": "N[C@@]1(c2ccccc2Cl)CCC[C@@H](O)C1=O", "note": "[2R,6R-hydroxynorketamine, 2R,6R-2-(2-Chlorophenyl)-2-(amino)-6-hydroxycyclohexanone]", "values": [{"measurement": "% Inhibition of Control Specific Binding", "setting": "5-HT1A", "value": 5, "unit": "%"}, {"measurement": "% of Control Specific Binding", "setting": "5-HT1A", "value": 97.9, "unit": "%"}, {"measurement": "binding to 5HT1A receptor subtype (in words)", "setting": "5-HT1A", "value": "does not bind"}, {"measurement": "% Inhibition of Control Specific Binding", "setting": "5-HT1B", "value": "−2", "unit": "%"}, {"measurement": "% of Control Specific Binding", "setting": "5-HT1B", "value": 102.7, "unit": "%"}, {"measurement": "binding to 5HT1B receptor subtype (in words)", "setting": "5-HT1B", "value": "does not bind"}, {"measurement": "% Inhibition of Control Specific Binding", "setting": "5-HT2A", "value": 0, "unit": "%"}, {"measurement": "% of Control Specific Binding", "setting": "5-HT2A", "value": 103.8, "unit": "%"}, {"measurement": "binding to 5HT2A receptor subtype (in words)", "setting": "5-HT2A", "value": "does not bind"}, {"measurement": "% Inhibition of Control Specific Binding", "setting": "5-HT2C", "value": 10, "unit": "%"}, {"measurement": "% of Control Specific Binding", "setting": "5-HT2C", "value": 91.1, "unit": "%"}, {"measurement": "binding to 5HT2C receptor subtype (in words)", "setting": "5-HT2C", "value": "does not bind"}, {"measurement": "% Inhibition of Control Specific Binding", "setting": "dopamine transporter", "value": 11, "unit": "%"}, {"measurement": "% of Control Specific Binding", "setting": "dopamine transporter", "value": 87.2, "unit": "%"}, {"measurement": "% Inhibition of Control Specific Binding", "setting": "5-HT1, Non-Selective", "value": "−9", "unit": "%"}, {"measurement": "% of Control Specific Binding", "setting": "5-HT1, Non-Selective", "value": 105.4, "unit": "%"}, {"measurement": "binding to 5HT1 receptors (in words)", "setting": "5-HT1, Non-Selective", "value": "does not bind"}, {"measurement": "% Inhibition of Control Specific Binding", "setting": "MAO-B", "value": "−1", "unit": "%"}, {"measurement": "% of Control Specific Binding", "setting": "MAO-B", "value": 100.4, "unit": "%"}, {"measurement": "inhibition of CYP2C19 (in words)", "setting": "CYP2C19", "value": "did not inhibit"}, {"measurement": "% Inhibition", "setting": "CYP2C19; 0.4 μM", "value": "−2.01", "unit": "%"}, {"measurement": "% Inhibition", "setting": "CYP2C19; 1 μM", "value": "−1.66", "unit": "%"}, {"measurement": "% Inhibition", "setting": "CYP2C19; 4 μM", "value": 1.85, "unit": "%"}, {"measurement": "% Inhibition", "setting": "CYP2C19; 10 μM", "value": 6.69, "unit": "%"}, {"measurement": "% Inhibition", "setting": "CYP2C19; 40 μM", "value": 8.25, "unit": "%"}, {"measurement": "% Inhibition", "setting": "CYP2C19; 100 μM", "value": 16.1, "unit": "%"}, {"measurement": "inhibition of CYP2C9 (in words)", "setting": "CYP2C9", "value": "did not inhibit"}, {"measurement": "% Inhibition", "setting": "CYP2C9; 0.4 μM", "value": 4.59, "unit": "%"}, {"measurement": "% Inhibition", "setting": "CYP2C9; 1 μM", "value": 5.92, "unit": "%"}, {"measurement": "% Inhibition", "setting": "CYP2C9; 4 μM", "value": 5.80, "unit": "%"}, {"measurement": "% Inhibition", "setting": "CYP2C9; 10 μM", "value": 11.9, "unit": "%"}, {"measurement": "% Inhibition", "setting": "CYP2C9; 40 μM", "value": "−0.113", "unit": "%"}, {"measurement": "% Inhibition", "setting": "CYP2C9; 100 μM", "value": "−1.33", "unit": "%"}, {"measurement": "% Inhibition", "setting": "CYP3A4; 0.4 μM", "value": 11.5, "unit": "%"}, {"measurement": "% Inhibition", "setting": "CYP3A4; 1 μM", "value": 8.44, "unit": "%"}, {"measurement": "% Inhibition", "setting": "CYP3A4; 4 μM", "value": 15.7, "unit": "%"}, {"measurement": "% Inhibition", "setting": "CYP3A4; 10 μM", "value": 25.7, "unit": "%"}, {"measurement": "% Inhibition", "setting": "CYP3A4; 40 μM", "value": 43.7, "unit": "%"}, {"measurement": "% Inhibition", "setting": "CYP3A4; 100 μM", "value": 57.5, "unit": "%"}, {"measurement": "IC50", "setting": "CYP3A4; substrate midazolam", "value": 69, "unit": "µM"}, {"measurement": "metabolic route (in words)", "setting": "Metabolite profiling", "value": "does not undergo phase I metabolism by CYP enzymes, but is glucuronidated"}, {"measurement": "substrate of p-gp or Breast Cancer Resistance Protein (BCRP) efflux transporters", "setting": "Caco-2; Caco-2", "value": "not a substrate"}, {"measurement": "permeability (in words)", "setting": "Caco-2; Caco-2 permeability assay", "value": "high"}, {"measurement": "Mean % Recovery", "setting": "Caco-2; Direction = A2B", "value": 98.9, "unit": "%"}, {"measurement": "Mean Papp", "setting": "Caco-2; Direction = A2B", "value": "45.7 10^−6 cms^−1"}, {"measurement": "Papp Replicate 1", "setting": "Caco-2; Direction = A2B", "value": "49.1 10^−6 cms^−1"}, {"measurement": "Papp Replicate 2", "setting": "Caco-2; Direction = A2B", "value": "42.3 10^−6 cms^−1"}, {"measurement": "Mean % Recovery", "setting": "Caco-2; Direction = B2A", "value": 103, "unit": "%"}, {"measurement": "Mean Papp", "setting": "Caco-2; Direction = B2A", "value": "50.7 10^−6 cms^−1"}, {"measurement": "Papp Replicate 1", "setting": "Caco-2; Direction = B2A", "value": "52.8 10^−6 cms^−1"}, {"measurement": "Papp Replicate 2", "setting": "Caco-2; Direction = B2A", "value": "48.5 10^−6 cms^−1"}, {"measurement": "CLint", "setting": "[1]", "value": 55.2, "unit": "μL/min/10^6 cells"}, {"measurement": "t1/2", "setting": "[1]", "value": 0.418, "unit": "h"}, {"measurement": "CLint", "setting": "[2]", "value": 4.72, "unit": "μL/min/10^6 cells"}, {"measurement": "t1/2", "setting": "[2]", "value": 4.9, "unit": "h"}, {"measurement": "hepatic clearance in humans (in words)", "setting": "[3]", "value": "does not undergo hepatic clearance"}]}
